Source: patent publication US20180087086A1, “CELL EGRESS AND INVASION INHIBITORS AND THEIR USE AS ANTIPARASITICAL AGENTS” (THE JOHNS HOPKINS UNIVERSITY, priority 2015, published 2018)

Tests used:
Format in all cases: cell-based
P. berghei sporozoites = assay: trail radius of gliding sporozoites (ImageJ); conditions: 62.5 μM; 130-150 trail radii; p-value <0.0001
Protocol: The trail radius was measured using ImageJ and the statistical analyses to determine standard error mean and t-test were performed using GraphPad.
The gliding phenotype was altered to determine whether the compounds were having off-target effects. While quantifying the number of deposited trails, the trail diameter in the presence of compounds was altered. An altered trail diameter is more likely due to either a direct effect on the motor or an effect on sporozoite shape. The diameter of the circular trails deposited by the parasites in the DMSO control was measured and in the presence of three compounds at 62.5 μM (FIG. 8). This concentration was chosen because at higher concentrations, there were not enough sporozoite trails to measure to do a statistical analysis of the results. Using ImageJ, circles were fit to trails in multiple images to measure 130-150 trail radii. The average trail radii increased in the presence of compounds 4, 17, and 18 with a p-value <0.0001. The increase in average trail size was 6.3 microns, 2.5 microns, and 3.6, for compounds 4, 17, and 18, respectively.

sporozoites [1] = assay: sporozoite viability, 2 dye system of ethidium and calcein-AM; conditions: for viability at 62.5 µM: 0.25 h, 15 min at room temperature, DMSO 96%; for sporozoite viability (ethidium/calcein-AM): extended 15 min incubation at 37° C.
Protocol: FIG. 12A-FIG. 12C is a series of bar charts that show results of sporozoite viability assays. […] The total number of sporozoites was determined from phase images and the number of non-viable sporozoites from the count of red fluorescing sporozoites.
To further investigate viability, a 2 dye system of ethidium and calcein-AM was used to measure both membrane permeability, a marker of death, and enzyme activity, a marker of viability (FIG. 12B). Live cells with intact membranes are impermeable to the ethidium DNA dye but are permeable to the calcein-AM dye, which can interact with active esterases and will fluoresce green. Dying cells allow the ethidium to cross the membrane and interact with DNA, fluorescing red. This two color readout allowed discrimination between live versus dead sporozoites. Sporozoites were incubated at room temperature with two different concentrations of compounds for 15 min and then counted. […] Compound 4 and 18 at 62.5 μM reduced sporozoite viability to 82% and 88%, respectively. At these concentrations, assays could be performed such that the compounds would not kill the parasite. Instead, the compounds merely impaired parasite mobility, indicating an on-target effect of the small molecule on Aldolase-TRAP. By modulating this interaction, despite not killing the parasites at that point, a dramatic reduction in liver cell invasion was observed (FIG. 14A). […] As these dyes are unable to be fixed and sporozoites are not viable for long periods of time, it is possible that there are some viability variances due to difference in time from incubation with the dye until counting.

[2] = system: P. berghei parasites constitutively expressing mCherry; assay: live imaging of mCherry expressing sporozoite gliding; conditions: for average gliding velocity: DMSO control 2.58+/−0.05 um/s; for total time spent gliding: 200 frame movies, control 46 frames; for pausing, fraction of active gliding time: control 7%; for waving sporozoites: manual assignment from z-stacks, control 15% waving
Excerpt: To determine the compound effects on the speed of gliding and type of gliding movement, live imaging of mCherry expressing parasites was used. P. berghei parasites constitutively expressing mCherry were allowed to settle on slides and imaged using an inverted microscope at 1.57 fps. ImageJ and the ToAST plugin were used to track parasites for a minimum of 150 frames in the 200 frame movies. The coordinates obtained via the automated tracking were much more useful than those using manual tracking. The ToAST plugin provides automatic identification of sporozoites from debris by aspect ratio and pixel analysis. The program also measures velocity and determine whether sporozoites are gliding in counterclockwise (CCW) or clockwise (CW) patterns, or whether they are stationary or waving, with large changes in vector angles between images.
Instead, the output position data was reanalyzed using similar algorithms as defined by ToAST. Sporozoites were assigned to one of four states at each time point, CW gliding, CCW gliding, stationary, or waving. To determine the speed of gliding, the average velocity was determined for sections of time in which the sporozoite was gliding continuously for more than 6 frames. Sporozoites would often glide for a number of frames and then stop gliding for a number of frames before continuing movement, resulting in more than one block of frames representing continuous gliding. The average for each sporozoite was a weighted average of the average speed during each block of gliding. The DMSO control parasites traveled in a CCW and CW pattern at an average speed of 2.58+/−0.05 um/s. […] Compound 4 gliding information was collected at a lower concentration compared to compound 18 because it was not possible to obtain a sufficient number of circularly gliding parasites for analysis at the higher concentrations (FIG. 11A).
As previously mentioned, sporozoites would often glide for several frames, then stop or pause, and then continue gliding. Upon initial observation of compound 4 samples, it was observed that parasites tended to glide in a stop-and-go manner, gliding for 4-6 frames and then stopping for 2-3 frames. To determine whether these pauses deviated from those observed in the control, the movies were analyzed to determine the total amount of time spent circularly gliding over the course of the 200 frame movies (FIG. 11C). Additionally, the fraction of time that the sporozoites paused for during active gliding was measured (FIG. 11D). A pause was defined as a cessation of circular gliding for no more than 10 frames. The fraction of paused frames to moving frames was measured for stretches of active gliding. […] Compound 4 increased pausing to 32% of the active gliding time, while compound 18 increased pauses to just 16% (FIG. 11D).
Z-stack images were created using ImageJ using the average intensity in each frame. From these frames, patterns of movements to one of two categories were assigned, circular gliding or waving. Waving sporozoites are defined as having on end attached while the other end moves or waves freely (FIG. 11F), resulting in large angular changes in the direction of the vector that lies along the sporozoite. Both compound 4 and 18 changed the ratio between gliding and waving sporozoites. In the control, nearly 85% of sporozoites are gliding circularly and 15% waving, whereas 72% and 66% are waving in compound 4 and 18 samples, respectively.

[3] = system: P. falciparum sporozoites; assay: dose-dependent killing of P. falciparum sporozoites; conditions: Plasmodium falciparum
Excerpt: Observed phenotype at lower concentration pinpoints towards an on-target effect of the compounds.

sporozoites [4] = assay: gliding motility assay with compound washout (reversibility)
Protocol: FIG. 13 B is a series of photomicrographs that show representative images from slides of gliding sporozoites. DMSO treated sporozoites (a, upper left) with circular gliding pattern versus (b, upper right) pyrazole-urea compound treated sporozoites with a unique wavy line gliding pattern. Below are images of a compound 4 washout slide at 7.8 μM showing a similar wavy gliding patterns in addition to circular gliding (c, d).
A gliding motility assay with a compound washout step was also performed to measure the reversibility of the compound's effects. The sporozoites were incubated at for a total of 20 min with the compound before they were washed and re-suspend and allowed to glide.

Row | Compound | increase in average trail size (trail radius) vs DMSO control (P. berghei sporozoites) [microns] | viability at 62.5 µM (sporozoites [1]) [%] | sporozoite viability (ethidium/calcein-AM) (sporozoites [1]) | average gliding velocity ([2]; 3.9 μM) | total time spent gliding [2] [frames] | pausing, fraction of active gliding time [2] [%] | waving sporozoites [2] [%] | EC90 [3] [µM] | reversibility of gliding effect after washout (sporozoites [4]; any concentration) | number of high gliding parasites after washout, relative to DMSO control (sporozoites [4]; less than 8 μM) [%] | total number of parasites gliding after washout (sporozoites [4]; less than 8 μM) | average gliding velocity ([2]; 62.5 μM) | reversibility of gliding effect after washout (sporozoites [4]; 31.25 μM) | reversibility of gliding effect after washout (sporozoites [4]; 62.5 μM) | reversibility of gliding effect after washout (sporozoites [4]; 15.625 and 7.8125 μM, 20 min incubation before wash)
1 | Brc1ccc(Nc2nc3ccccc3nc2Nc2ccc(Br)cc2)cc1 [Compound 4, N,N′-bis(4-bromophenyl)-2,3-quinoxalinediamine] | 6.3 | 82 | 66% | 1.81+/−0.09 um/s | 25 | 32 | 72 | ~125 | no complete reversibility | 10 | comparable to wild type |  |  |  | 
2 | CCCCn1c(N)c(C(=O)NCc2ccccc2)c2nc3ccccc3nc21 [Compound 18, 2-amino-N-benzyl-1-butyl-1H-pyrrolo[2,3-b]quinoxaline-3-carboxamide] | 3.6 | 88 | did not differ from the control |  | 16 | 16 | 66 | ~30 |  |  |  | 1.88+/−0.17 um/s | the number of high-gliding parasites increased | little reversibility | completely reversible
